Here are results for 13 molecules from patent publication US4650907A, “Nonaromatic fluoroallylamine MAO inhibitors” (Merrell Dow Pharmaceuticals Inc., priority 1985, dated 1987).

In one series the test system is MAO. The settings on record: selective at lower dosages, less selective at higher dosages; cited from earlier work.
The target in series [1] is T1, MAO-A (Rattus norvegicus, UniProt P21396).
T1 construct: preparing mitochondria from rat brain by homogenation in phosphate buffer; from tissue; host or cells: rat brain mitochondria
T1 sequence (P21396 1-526): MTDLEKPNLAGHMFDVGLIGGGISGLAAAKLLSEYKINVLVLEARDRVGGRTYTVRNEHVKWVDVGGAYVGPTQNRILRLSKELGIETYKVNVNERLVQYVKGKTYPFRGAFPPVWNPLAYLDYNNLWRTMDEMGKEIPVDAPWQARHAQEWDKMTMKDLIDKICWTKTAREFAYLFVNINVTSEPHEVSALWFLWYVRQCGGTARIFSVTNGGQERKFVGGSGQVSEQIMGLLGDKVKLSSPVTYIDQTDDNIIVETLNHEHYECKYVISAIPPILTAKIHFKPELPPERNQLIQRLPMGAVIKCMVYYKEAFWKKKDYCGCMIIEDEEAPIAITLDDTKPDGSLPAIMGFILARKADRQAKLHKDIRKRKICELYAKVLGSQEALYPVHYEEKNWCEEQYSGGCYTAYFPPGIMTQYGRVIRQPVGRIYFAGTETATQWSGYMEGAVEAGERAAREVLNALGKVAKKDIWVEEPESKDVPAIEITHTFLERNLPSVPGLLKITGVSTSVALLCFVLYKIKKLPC
The experiment in a line: Inhibition of MAO - in vitro, partially purified mitochondria from rat brain, 14C 5-hydroxytryptamine (5-HT) substrate (MAO-A). Format: biochemical. The following applies: substrate 14C 5-hydroxytryptamine (5HT), preferred substrate for MAO-A. The text has this:
(§1) The ability of a compound of structure 1 to inhibit MAO can be determined in vitro by the method of A. Christmas et al., Br. J. Pharmacol. 45, 490 (1972) in partially purified mitochondria from rat brain using ^14 C otyramine or ^14 C phenethylamine and ^14 C 5-HT as the substrate. The MAO inhibitory activity of a compound is expressed as the "IC50 " value, which is the molar concentration required to produce 50% inhibition of the enzyme. The IC50 values for certain compounds of structure 1 were determined using the above-described method, and the results are set forth in Table I.
(§2) The selectivity of a compound of structure 1 with respect to inhibition of MAO-A and MAO-B can be determined by preparing mitochondria from rat brain by homogenation in phosphate buffer (0.1 M, pH 7.2) followed by differential centrifugation. The mitochondria are suspended in the same buffer, the test compound is added at the desired concentration, and the system is incubated. At different time intervals, aliquots are taken and MAO activity is measured using ^14 C 5-hydroxytryptamine (5HT; a preferred substrate for MAO-A) or 14C -phenethylamine (PEA; a preferred substrate for MAO-B) as the substrates. The selectivity is expressed as the ratio of the inhibitory activity against MAO-B versus the inhibitory activity against MAO-A. (Zreika, McDonald, Bey, Palfreyman, J. Neurochem., 448-454 (1984)).

Series [2] concerns the target T2, MAO-B (Rattus norvegicus, UniProt P19643).
T2 construct: preparing mitochondria from rat brain by homogenation in phosphate buffer; from tissue; host or cells: rat brain mitochondria
T2 sequence (P19643 1-520): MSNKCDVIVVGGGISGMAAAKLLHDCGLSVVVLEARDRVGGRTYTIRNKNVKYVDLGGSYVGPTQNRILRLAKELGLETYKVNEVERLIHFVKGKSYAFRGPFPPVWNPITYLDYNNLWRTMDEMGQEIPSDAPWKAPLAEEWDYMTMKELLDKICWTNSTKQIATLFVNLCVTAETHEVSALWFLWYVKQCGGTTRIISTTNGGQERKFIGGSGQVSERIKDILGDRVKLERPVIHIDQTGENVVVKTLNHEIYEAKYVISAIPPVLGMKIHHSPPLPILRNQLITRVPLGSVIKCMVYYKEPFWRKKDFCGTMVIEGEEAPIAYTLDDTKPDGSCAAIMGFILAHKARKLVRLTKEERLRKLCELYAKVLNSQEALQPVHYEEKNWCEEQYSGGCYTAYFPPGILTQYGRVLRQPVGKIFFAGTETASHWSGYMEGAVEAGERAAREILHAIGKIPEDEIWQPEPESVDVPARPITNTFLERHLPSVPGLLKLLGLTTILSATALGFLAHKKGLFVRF
The experiment in a line: Inhibition of MAO - in vitro, partially purified mitochondria from rat brain, 14C-phenethylamine (PEA) substrate (MAO-B). The settings on record: substrate 14C-phenethylamine (PEA), preferred substrate for MAO-B. Format: biochemical.
Text: as §1, §2

The target of series [3] is T1, MAO-A. The experiment in a line: Inhibition of MAO - ex vivo, brain mitochondria of orally dosed rats, 14C 5-hydroxytryptamine substrate (MAO-A). The settings on record: po, brain mitochondrial fraction. Format: in vivo. How it is done: (§3) The test compound is administered orally (po) to rats and the animals are killed at various times after treatment. The brain is removed and a mitochondrial fraction, described in Example 12 is prepared. MAO activity is determined using ^14 C p-tyramine, as the substrate. Selectivity can be determined by repeating the above-described test using either ^14 C 5-hydroxytryptamine (for MAO-A) or ^14 C phenethylamine (for MAO-B) as the substrate for determining the % inhibition.

Series [4] has as its target T2, MAO-B. The experiment in a line: Inhibition of MAO - ex vivo, brain mitochondria of orally dosed rats, 14C phenethylamine substrate (MAO-B). Format: in vivo. The following applies: po, brain mitochondrial fraction. As to the method:
as §3

For series [5] the following is noted: cited from earlier work; for clinical antidepressant effect: man.

With `N[C@@H]1C[C@H]1c1ccccc1` (relative stereo) [tranylcypromine], the “preferential inhibition of MAO (in words)” value (shortened to “preferential inhibition”) in the series with MAO is recorded as “not preferential in their action upon MAO”.

Regarding `CCCC/C(=C\F)CN` [(E)-2-Butyl-3-fluoroallylamine], the IC50 on MAO-A [1] was 110 nM; against MAO-B [2], 2 nM.

Take `CCCCCCC/C(=C\F)CN` [(E)-2-Heptyl-3-fluoroallylamine]: the IC50 is 60 nM on MAO-A [1] and 4.5 nM at MAO-B [2].

On to `CCCCCC/C(=C\F)CN` [(E)-2-Hexyl-3-fluoroallylamine], for which the IC50 amounted to 170 nM on MAO-A [1] and 7 nM at MAO-B [2].

For `CC(C)C/C(=C\F)CN` [(E)-2-Isobutyl-3-fluoroallylamine], the ED50 at MAO-A [3] was 0.8 mg/kg; on MAO-B [4], 0.05 mg/kg. The IC50 against MAO-A [1] amounted to 2300 nM; on MAO-B [2] it was 30 nM.

On to `CC(C)/C(=C\F)CN` [(E)-2-Isopropyl-3-fluoroallylamine], for which the values for the IC50 on MAO-A [1] and against MAO-B [2] were 170000 nM and 2500 nM, respectively.

With `CCCCCCCCCCC/C(=C\F)CN` [(E)-2-Undecyl-3-fluoroallylamine], the IC50 against MAO-A [1] worked out at 750 nM; against MAO-B [2], 500 nM.

As to `CCC(C)/C(=C\F)CN` (centres unmarked) [(E)-2-sec-Butyl-3-fluoroallylamine], the IC50 against MAO-A [1] worked out at 170000 nM; against MAO-B [2], 7000 nM.

For `C#CCN(C)[C@H](C)Cc1ccccc1` [L-deprenyl], the “preferential inhibition” value in the series with MAO is recorded as “MAO-B is preferentially inhibited”. Further, in series [5] (low dosages where preferential inhibition of MAO-B occurs), the cheese effect entry is reported as “not observed”. For the same molecule, in series [5], the clinical antidepressant effect entry is “clinically effective antidepressant agents”. In addition, the “potentiation of L-DOPA in Parkinson's disease” value in series [5] (treatment of Parkinson's disease) is “potentiate L-DOPA for the treatment of Parkinson's disease without producing peripheral side effects”.

With `C#CCN(C)CCCOc1ccc(Cl)cc1Cl` [clorgyline], the clinical antidepressant effect result in series [5] is recorded as “clinically effective antidepressant agents”.

For `Cc1cc(C(=O)NNCc2ccccc2)no1` [isocarboxazid], the “preferential inhibition” value in the series with MAO was “not preferential in their action upon MAO”.

As to `C#CCN(C)Cc1ccccc1` [pargyline], in the series on MAO, the “preferential inhibition” value is “MAO-B is preferentially inhibited”. In addition, the clinical antidepressant effect result in series [5] is reported as “clinically effective antidepressant agents”.

As for `NNCCc1ccccc1` [phenelzine], the “preferential inhibition” value in the series with MAO was “not preferential in their action upon MAO”.
